Patent publication US20260262643A1, “HERBICIDAL BENZOXAZINES” (FMC CORPORATION, priority 2022, published 2026)

Legend:
[1] = tested on: ryegrass, Italian; experiment: Test A preemergence; type: in vivo, Lolium multiflorum
In short: (§1)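 Loam/sand soil; pre-em directed soil spray at planting, post-em spray at 1–2 leaf (2–10 cm). Compound in non-phytotoxic solvent + surfactant. Greenhouse 10 d; visual injury vs untreated, 0 = no effect, 100 = complete control.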

[2] = tested on: kochia; experiment: Test A preemergence; type: in vivo, Bassia scoparia
In short: as §1

[3] = tested on: foxtail, giant; experiment: Test A postemergence; type: in vivo, Setaria faberi
In short: as §1

[4] = tested on: barnyardgrass; experiment: Test A preemergence; type: in vivo, Echinochloa crusgalli
In short: as §1

[5] = tested on: barnyardgrass; experiment: Test B flooded paddy test; type: in vivo, Echinochloa crus-galli; settings: 250 g ai/ha, Flood, 13 days, 0 to 100 scale (0 no effect, 100 complete control)
In short: (§2)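 Percent weed or crop control, judged by eye on a 0–100 scale 13 days post-treatment, reflects compound added to a 3 cm flood maintained over 2-leaf plants in the greenhouse. Missing entries are marked with a dash.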

[6] = tested on: corn; experiment: Test A postemergence; type: in vivo, Zea mays
In short: as §1

[7] = tested on: kochia; experiment: Test A postemergence; type: in vivo, Bassia scoparia
In short: as §1

[8] = tested on: blackgrass; experiment: Test A postemergence; type: in vivo, Alopecurus myosuroides
In short: as §1

[9] = tested on: ragweed; experiment: Test A preemergence; type: in vivo, Ambrosia artemisiifolia
In short: as §1

[10] = tested on: galium; experiment: Test A postemergence; type: in vivo, Galium aparine
In short: as §1

[11] = tested on: Pigweed, Redroot; experiment: Test A preemergence; type: in vivo, Amaranthus retroflexus
In short: as §1

[12] = tested on: barnyardgrass; experiment: Test A postemergence; type: in vivo, Echinochloa crusgalli
In short: as §1

[13] = tested on: foxtail, giant; experiment: Test A preemergence; type: in vivo, Setaria faberi
In short: as §1

[14] = tested on: rice; experiment: Test B flooded paddy test; type: in vivo, Oryza sativa; settings: 250 g ai/ha, Flood, 13 days, 0 to 100 scale (0 no effect, 100 complete control)
In short: as §2

[15] = tested on: ryegrass, Italian; experiment: Test A postemergence; type: in vivo, Lolium multiflorum
In short: as §1

[16] = tested on: wheat; experiment: Test A postemergence; type: in vivo, Triticum aestivum
In short: as §1

[17] = tested on: ragweed; experiment: Test A postemergence; type: in vivo, Ambrosia artemisiifolia
In short: as §1

[18] = tested on: ducksalad; experiment: Test B flooded paddy test; type: in vivo, Heteranthera limosa; settings: 250 g ai/ha, Flood, 13 days, 0 to 100 scale (0 no effect, 100 complete control)
In short: as §2

[19] = tested on: Pigweed, Redroot; experiment: Test A postemergence; type: in vivo, Amaranthus retroflexus
In short: as §1

[20] = tested on: sedge, umbrella; experiment: Test B flooded paddy test; type: in vivo, Cyperus difformis; settings: 250 g ai/ha, Flood, 13 days, 0 to 100 scale (0 no effect, 100 complete control)
In short: as §2

[21] = 1000 g ai/ha, 0 to 100 scale (0 no effect, 100 complete control), 10 days
[22] = 1000 g ai/ha, Postemergence, 0 to 100 scale
[23] = 125 g ai/ha, visual injury after 10 days, 0 to 100 scale, 0 is no effect, 100 is complete control
[24] = 500 g ai/ha, 0 to 100 scale (0 no effect, 100 complete control), 10 days
[25] = 125 g ai/ha, postemergence, 10 days, visual injury, 0 to 100 scale (0 no effect, 100 complete control)
[26] = 500 g ai/ha, Postemergence, 0 to 100 scale

CC1CN(C(=O)c2cccc(-n3cncn3)c2)c2cccc(F)c2O1 (stereo not drawn) [Compound 20]
Plant response rating, Ryegrass, Italian [1, 21]: 100 | Plant response rating, Kochia [2, 21]: 80 | Plant response rating, Foxtail, Giant [3, 22]: 90 | Plant response rating, Barnyardgrass [4, 21]: 90 | Plant response rating, Barnyardgrass [5]: 0 | Plant response rating, Corn [6, 22]: 60 | Plant response rating, Kochia [7, 22]: 30 | Plant response rating, Blackgrass [8, 22]: 70 | Plant response rating, Ragweed [9, 21]: 80 | Plant response rating, Galium [10, 22]: 90 | Plant response rating, Pigweed, Redroot [11, 21]: 80 | Plant response rating, Barnyardgrass [12, 22]: 90 | Plant response rating, Foxtail, Giant [13, 21]: 100 | Plant response rating, Rice [14]: 0 | Plant response rating, Ryegrass, Italian [15, 22]: 70 | Plant response rating, Wheat [16, 22]: 70 | Plant response rating, Ragweed [17, 22]: 30 | Plant response rating, Ducksalad [18]: 85 | Plant response rating, Pigweed, Redroot [19, 22]: 30 | Plant response rating, Sedge, Umbrella [20]: 35

Cc1cccc2c1OC(C)CN2C(=O)c1cccc(-n2cncn2)c1 (stereo not drawn) [Compound 21]
Plant response rating, Ryegrass, Italian [1, 21]: 100 | Plant response rating, Kochia [2, 21]: 70 | Plant response rating, Foxtail, Giant [3, 22]: 90 | Plant response rating, Barnyardgrass [4, 21]: 100 | Plant response rating, Barnyardgrass [5]: 0 | Plant response rating, Corn [6, 22]: 90 | Plant response rating, Kochia [7, 22]: 40 | Plant response rating, Blackgrass [8, 22]: 80 | Plant response rating, Ragweed [9, 21]: 70 | Plant response rating, Galium [10, 22]: 80 | Plant response rating, Pigweed, Redroot [11, 21]: 100 | Plant response rating, Barnyardgrass [12, 22]: 90 | Plant response rating, Foxtail, Giant [13, 21]: 100 | Plant response rating, Rice [14]: 0 | Plant response rating, Ryegrass, Italian [15, 22]: 80 | Plant response rating, Wheat [16, 22]: 70 | Plant response rating, Ragweed [17, 22]: 40 | Plant response rating, Ducksalad [18]: 65 | Plant response rating, Pigweed, Redroot [19, 22]: 60 | Plant response rating, Sedge, Umbrella [20]: 35

CC1CN(C(=O)c2ccnc(-n3cncn3)c2)c2ccccc2O1 (stereo not drawn) [Compound 19]
Plant response rating, Ryegrass, Italian [1, 21]: 80 | Plant response rating, Kochia [2, 21]: 60 | Plant response rating, Foxtail, Giant [3, 22]: 60 | Plant response rating, Barnyardgrass [4, 21]: 90 | Plant response rating, Barnyardgrass [5]: 0 | Plant response rating, Corn [6, 22]: 50 | Plant response rating, Kochia [7, 22]: 30 | Plant response rating, Blackgrass [8, 22]: 70 | Plant response rating, Ragweed [9, 21]: 80 | Plant response rating, Galium [10, 22]: 90 | Plant response rating, Pigweed, Redroot [11, 21]: 0 | Plant response rating, Barnyardgrass [12, 22]: 80 | Plant response rating, Foxtail, Giant [13, 21]: 100 | Plant response rating, Rice [14]: 0 | Plant response rating, Ryegrass, Italian [15, 22]: 60 | Plant response rating, Wheat [16, 22]: 70 | Plant response rating, Ragweed [17, 22]: 0 | Plant response rating, Ducksalad [18]: 0 | Plant response rating, Pigweed, Redroot [19, 22]: 40 | Plant response rating, Sedge, Umbrella [20]: 0

CCC1CN(C(=O)c2cncc(-n3cncn3)c2)c2cccc(Cl)c2O1 (racemic) [Compound 6]
Plant response rating, Ryegrass, Italian [1, 23]: 20 | Plant response rating, Ryegrass, Italian [1, 24]: 50 | Plant response rating, Kochia [2, 23]: 0 | Plant response rating, Kochia [2, 24]: 0 | Plant response rating, Foxtail, Giant [3, 25]: 0 | Plant response rating, Foxtail, Giant [3, 26]: 10 | Plant response rating, Barnyardgrass [4, 23]: 0 | Plant response rating, Barnyardgrass [4, 24]: 0 | Plant response rating, Barnyardgrass [5]: 0 | Plant response rating, Corn [6, 25]: 0 | Plant response rating, Corn [6, 26]: 0 | Plant response rating, Kochia [7, 25]: 0 | Plant response rating, Kochia [7, 26]: 0 | Plant response rating, Blackgrass [8, 25]: 0 | Plant response rating, Blackgrass [8, 26]: 0 | Plant response rating, Ragweed [9, 23]: 0 | Plant response rating, Ragweed [9, 24]: 30 | Plant response rating, Galium [10, 25]: 0 | Plant response rating, Galium [10, 26]: 30 | Plant response rating, Pigweed, Redroot [11, 23]: 0 | Plant response rating, Pigweed, Redroot [11, 24]: 20 | Plant response rating, Barnyardgrass [12, 25]: 0 | Plant response rating, Barnyardgrass [12, 26]: 10 | Plant response rating, Foxtail, Giant [13, 23]: 0 | Plant response rating, Foxtail, Giant [13, 24]: 60 | Plant response rating, Rice [14]: 0 | Plant response rating, Ryegrass, Italian [15, 25]: 50 | Plant response rating, Ryegrass, Italian [15, 26]: 40 | Plant response rating, Wheat [16, 25]: 0 | Plant response rating, Wheat [16, 26]: 0 | Plant response rating, Ragweed [17, 25]: 0 | Plant response rating, Ragweed [17, 26]: 0 | Plant response rating, Ducksalad [18]: 0 | Plant response rating, Pigweed, Redroot [19, 25]: 0 | Plant response rating, Pigweed, Redroot [19, 26]: 30 | Plant response rating, Sedge, Umbrella [20]: 0
